Molecular target: T1, human recombinant adrenergic α1D receptor (Homo sapiens, UniProt P25100)
T1 construct: expressed in transfected cells; host or cells: HEK-293
T1 sequence (P25100 1-572): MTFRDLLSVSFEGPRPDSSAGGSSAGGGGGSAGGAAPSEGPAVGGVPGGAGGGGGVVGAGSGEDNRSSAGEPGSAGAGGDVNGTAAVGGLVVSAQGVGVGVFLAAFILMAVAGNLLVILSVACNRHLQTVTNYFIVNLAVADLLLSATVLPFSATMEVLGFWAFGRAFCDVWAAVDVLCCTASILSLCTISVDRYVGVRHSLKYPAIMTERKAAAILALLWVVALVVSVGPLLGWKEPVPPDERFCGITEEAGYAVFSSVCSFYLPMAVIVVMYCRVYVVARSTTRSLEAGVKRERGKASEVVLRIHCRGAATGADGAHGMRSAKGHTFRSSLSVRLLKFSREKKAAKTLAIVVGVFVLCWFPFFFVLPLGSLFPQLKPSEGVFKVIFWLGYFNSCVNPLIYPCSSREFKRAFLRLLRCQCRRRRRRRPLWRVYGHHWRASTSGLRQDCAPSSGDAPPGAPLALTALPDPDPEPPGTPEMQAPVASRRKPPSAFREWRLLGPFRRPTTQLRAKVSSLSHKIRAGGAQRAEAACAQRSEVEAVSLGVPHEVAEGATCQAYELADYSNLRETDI
Experiment: Adrenergic α1D radioligand binding ([3H]Prazosin)
Details: read-out: Adrenergic (0.1 μM) a1D, percent inhibition of specific binding; compound at 0.1 μM; 0.6 nM [3H]Prazosin
Method: Compounds of invention were incubated with 0.6 nM [^3H]Prazosin for 60 min at 25° C. Non-specific binding was estimated in the presence of 10 μM phentolamine. Receptor proteins were filtered and washed, the filters were then counted to determine [^3H]Prazosin specifically bound. […] Compounds of the invention were tested in this biochemical assay and percent inhibition of specific binding was determined.

Question: With CNC(=O)c1cccc(-c2ccc(-n3c4c(c5cc(C)ccc53)CN(C)CC4)nc2)c1 [Compound No. 143, 3-(6-(2,8-dimethyl-3,4-dihydro-1H-pyrido[4,3-b]indol-5(2H)-yl)pyridin-3-yl)-N-methylbenzamide] as the molecule, how does the inhibition at 0.1 µM read?
Answer: The inhibition at 0.1 µM was 72%.

From US9187471B2, “Pyrido [4,3-b] indole and pyrido [3,4-b] indole derivatives and methods of use” (Medivation Technologies, Inc., priority 2010, dated 2015)
